# Measured values published in a melting point compilation (Tetko et al.; mined from patent text by program, amines drawn as free bases though some values may be those of a salt).
row,Compound,melting point [°C]
1,CC(C)CCSc1cc(C(=O)O)cc(S(=O)(=O)Cl)c1Oc1ccccc1,168 to 169
2,O=C(NC(=S)c1c(Cl)cccc1Cl)Nc1ccc(Cl)c(Cl)c1,168
3,C=CCc1cc(-c2ccc(F)cc2)cc(C(=O)O)c1O,170 to 172
4,COc1ccc(OC)c2c1C[C@](O)(C1(C)OCCO1)CC2=O,183 to 184
5,CNC(NCCSCc1[nH]cnc1C)=C(C#N)C#N,133 to 135
6,NC(=O)N(O)Cc1ccc(OCCc2csc(-c3ccccc3)n2)cc1,137 to 138
7,CC(C)C1(C)N=C(c2ncc(C3OCCCCO3)cc2C(=O)O)NC1=O (configuration not stated),60 to 69
8,Cc1ccc(CC(C)NCC(O)c2cc3ccccc3o2)cc1 (configuration not stated),88 to 100
9,O=C(O)c1cccc(-c2ccc3c(c2)C(c2ccc(Cl)cc2Cl)CCO3)c1 (configuration not stated),223 to 224
10,CNC(=O)NS(=O)(=O)c1ccccc1OCCCl,218 to 222
11,Nc1cccc2c1ccn2-c1ccnc(N[C@H]2CC[C@H](O)CC2)n1,219 to 220
12,CC(CCCl)C(=O)Nc1cc(C(C)(C)C)no1 (configuration not stated),135 to 137
13,CC(C)(C)OC(=O)CON=C1CC(=NOCC(=O)OC(C)(C)C)c2ccccc2-c2ccccc21,105 to 107
14,CS(=O)(=O)c1ccc(C(Cc2ccc(F)cc2)C(=O)Nc2nc3ccc(CO)cc3o2)cc1 (configuration not stated),128 to 130
15,COc1ccc2c(c1)c(Cc1cc(=O)n(-c3cccc(Cl)c3)[nH]1)c(C)n2C(=O)c1ccc(Cl)cc1,148 to 150
16,CCCCc1oc2ccccc2c1C(=O)NCc1ccc2c(-c3ccccc3)c(OCc3nnn[nH]3)ccc2c1,192 to 196
17,CN(C)C(=O)C1=C(C(=O)Nc2cc(OC3CCCC3)c(Cl)cc2F)CCCC1,136 to 138
18,O=C(Nc1ccc2cc(CN3CCC(CCO)CC3)cnc2c1)c1ccc(-c2ccc(F)cc2)cc1,193 to 196
19,Cc1ccc2c(O)c(-c3cccc(Oc4ccccc4)c3)c(=O)[nH]c2c1,299 to 300
20,SC1=NCCN1Cc1ccccc1,177 to 182
21,CC(=O)Nc1ccc(CC(=O)NCCc2ccc3[nH]cc(CC#N)c3c2)cc1,188 to 189
22,OC(c1cc(-c2ccc(F)cc2)c(-c2ccc(F)cc2)[nH]1)C(F)(F)F (configuration not stated),121 to 122
23,CCCn1nc2c(N)nc3ccccc3c2c1CCCc1cc(-c2ccccc2)no1,176 to 178
24,COC(=O)C(=Cc1cc(OC)c(OC)cc1Br)c1ccccc1C(=O)O,129 to 130
25,CCCCCCCCCCCCCCCSCCCO,36 to 39
26,CCN(CC)C(=O)c1cc(-c2ccc(OC)cc2)ccc1OC,58 to 60

row,Compound,melting point [°C]
1,O=C=Nc1ccc2c(c1)C(=O)CC2,72
2,O=Cc1nccnc1OCc1ccccc1,69.4
3,COc1ccc(COc2c(C)c(C)c3c(c2C)C(c2ccc(N4CCOCC4)cc2)C(C)(C)O3)cc1 (configuration not stated),110 to 112
4,O=C(Cc1ccc(Cl)cc1)Nc1ccc(-n2nc(C(F)(F)F)cc2C(F)(F)F)cc1,122 to 124
5,O=C1CCCCC(CCc2nc3cc(Br)cnc3[nH]2)N1 (configuration not stated),245
6,Cc1nc(NC(=O)CCc2ccccc2)sc1C(=O)NCc1ccccc1,63 to 65
7,CCCCC1(CC)COP(=O)(Cc2ccc(N)cc2)OC1 (configuration not stated),90 to 91
8,CSCCC(=O)N(C)c1cnc(-c2cccnc2)s1,116 to 118
9,C=CS(=O)(=O)Nc1c(C)cc([N+](=O)[O-])cc1C,132
10,COC(=O)C1CCc2cc(OCc3ccccc3)c(OCc3ccccc3)cc2C1O (configuration not stated),121 to 124
11,COc1ccc(C(=O)N2c3ccccc3C(N3CCc4ccccc43)CC2C)cc1OC (configuration not stated),147 to 148
12,COc1cc2c(c(OC)c1OC)-c1cc(I)c(O)cc1[C@@H](NC(C)=O)CC2,210
13,COc1ccccc1N1CCN(CC(O)CCl)CC1 (configuration not stated),96 to 98
14,CONC(=N)c1nc(C)c(I)c(NCC(F)(F)F)n1,150 to 152
15,CC1(Oc2ccccc2)CN(Cc2ccc(COc3cccc4c3CN(C3CCC(=O)NC3=O)C4=O)cc2)C1 (configuration not stated),127 to 129
16,c1ccc(CCNc2cc(-n3cccn3)nc(-c3ccco3)n2)nc1,110 to 111
17,Nc1ccc(C(=O)O)cc1S(N)(=O)=O,214 to 219
18,COc1ccc(N2CCOCC2)c2sc(C(N)=S)nc12,238
19,COc1ccc(C2OC2C(N)=O)cc1 (configuration not stated),142 to 144
20,Cc1c(C(=O)Cl)ccc(S(C)(=O)=O)c1-c1ccon1,85 to 88
21,O=c1c2c(Cc3ccccc3Cl)n[nH]c2c2cccnc2n1-c1cccc(OC(F)(F)F)c1,273 to 275
22,Cc1ccc(CCCNCC(O)c2cc3ccccc3o2)cc1 (configuration not stated),118 to 119
23,Cc1cccc(C)c1-n1cc(C#N)c(=O)n(SC(Cl)(Cl)Cl)c1=O,223 to 225
24,CSC1NC(=O)N(C)C(=O)N1C (configuration not stated),137 to 139
25,Cc1cccc2ncc(C(=O)NC3CC3)c(=O)n12,174 to 176
26,COC(=O)C(CC#Cc1cc2c(O)c(C(=O)NCc3ccc(Cl)cc3)cnc2s1)C(=O)OC,197 to 198

row,Compound,melting point [°C]
1,Cc1cc2c(cc1C)C(=CC#N)OC2=O,165 to 181
2,CON(C)C(=O)[C@H]1CCn2c(cc3ccccc32)C1,78 to 80
3,NC1(C(F)F)CCCNC1=O (configuration not stated),149
4,COc1cccc(-c2nn(Cc3oc4ccccc4c(=O)c3-c3ccccc3)c3ncnc(N)c23)c1,111 to 115
5,Cc1ccc(Cn2[nH]c(N)cc2=O)cc1C(F)(F)F,103
6,Cc1cccc(C(=O)Nc2ccc(-c3ccc(-c4ccccc4Cl)n3Cc3cccc(N)n3)cc2)c1,108 to 118
7,COC(=O)C(C)Oc1ccccc1S(=O)(=O)NC(=O)Nc1nc(C)cc(C)n1 (configuration not stated),200 to 203
8,COC(=O)c1ccc2c(c1)-n1cccc1CO2,60 to 62
9,COc1ccc(N2CCN(c3nc(NC(C)(C)C(C)(C)C)nc(NC(C)(C)C(C)(C)C)n3)CC2)cc1,155 to 157
10,O=C(O)C1CC(O)CN1C(=O)c1ccc2c(c1)OCO2 (configuration not stated),230
11,CCCCn1c(=O)n(C(C)C)c(=O)c2[nH]c(C)nc21,172 to 173
12,COc1ccc2c(c1)C(=O)C(Cc1cccc(N)c1)CC2 (configuration not stated),159 to 161
13,CCn1c(C)c(C(C)=O)c(N)c1-c1ccccc1,107 to 108
14,CCCCCCCC[Si](C)(C)c1cccc(Cl)c1C(=O)NCC,62 to 63
15,CCCCNC(=O)C(C)(C)n1cc(C)c(-c2ccccc2)n1,53 to 57
16,N#Cc1cc(C(F)(F)F)cc(C(=O)Nc2ccc(Cl)c(Cl)c2)c1N1CCCCC1,175
17,CC(C)CCn1cn[nH]c1=O,78 to 79
18,CCOC(=O)C(=CNc1cc(=O)c2ccccc2o1)C(=O)OCC,138 to 140
19,BrCC=Cc1ccc(-c2cnc(CSCCOc3ccccc3)o2)cc1,88 to 91
20,COc1cc(-n2nc3n(c2=S)CCSC3)c(Cl)cc1Cl,131 to 135
21,COC(=O)c1cc(NC(=O)c2ccnc(C)c2)c2cc(Cc3ccc(F)cc3)cnc2c1O,229 to 230
22,NS(=O)(=O)c1cccc(NC(=O)c2cnn3c(C(F)F)cc(-c4ccc(Cl)cc4)nc23)c1,278
23,C=CCc1c(C)ccc(N2C(=O)c3ccccc3C2=O)c1O,178 to 180
24,N#CC(=CO)c1ccc(Cl)cc1Cl,162 to 163
25,NSc1nc(N)nc2nc[nH]c12,> 250
26,CCOC(=O)C(=CN(C)C1(CO)CC1)C(=O)c1c(F)c(F)c(F)c(F)c1F,74.5 to 76

row,Compound,melting point [°C]
1,CC(=O)OCC(=O)C1CC(OS(=O)(=O)c2c(C)cc(C)cc2C)C2C3CCC4CC(OC(C)=O)CCC4(C)C3CC(OC(C)=O)C12C (configuration not stated),156 to 157
2,CCCc1c(OCCCSCCBr)ccc(C(C)=O)c1O,74 to 75
3,CC(C)OC(=O)c1cc(-n2c(=O)[nH]c3c(c2=O)CCC3)c(F)cc1F,231 to 234
4,COc1cc(OC)c([N+](=O)[O-])c(OC)c1NC(=O)OCCCl,133
5,COC(=O)CCCc1cc2nc(C)ccc2n1S(=O)(=O)c1ccccc1,91 to 94
6,Cc1noc(C)c1Cn1cc(N2C(=O)CNC2=O)cn1,169 to 171
7,CC(=O)c1cc(-c2ccc(S(C)(=O)=O)cc2)n(-c2ccc(F)cc2)n1,207 to 209
8,COc1ccc(-c2cc(CCCN3CCN(C)CC3)c(=O)n(Cc3ccc(F)cc3)n2)cc1F,108 to 109
9,Fc1cc2c(Cl)ncnc2cn1,75 to 76
10,COc1cc(C(=O)C=Cc2cc(O)c(O)c([N+](=O)[O-])c2)cc(OC)c1OC,213 to 216
11,CNC(=C[N+](=O)[O-])NCCCCOc1cccc(CCCN(C)C)c1,79 to 80.5
12,CCCn1cc(Cc2ccc(C(=O)NS(=O)(=O)c3ccccc3C)cc2OC)c2cc(CCNC(=O)N(C)C)ccc21,115 to 121
13,COc1cc(C(C)=O)ccc1OCCCN1CCN(n2ncc3ccc(F)cc32)CC1,135 to 137
14,COCOc1cc(OC)cc(C)c1C(=O)O,111 to 112
15,O=C(Nc1nnc(C(F)(F)F)s1)c1ccc2ccccc2c1,249 to 251
16,CCn1ncc2c(O)c(CCc3ccccc3)c(C(=O)O)nc21,250 to 251
17,COc1cc(-c2cn(-c3cccc(OCCn4ccnc4)c3)c3ncnc(N)c23)ccc1OCc1ccccc1,122 to 124
18,CC(C(=O)NCC(F)(F)C(F)(F)F)C(=O)NC1C(=O)N(C)c2cc(F)ccc2OC1C (configuration not stated),126 to 134
19,CCOC(=O)c1c(Cn2cncn2)nc2cc3c(cc2c1-c1ccc(OC)c(OC)c1)OCCO3,138 to 140
20,CCCOc1ccc(C(=O)O)cc1-c1ccc(C#N)c(=O)[nH]1,277 to 279
21,CC(C)c1nc2cc(COc3ccc(C=O)cc3)ccc2o1,86 to 88
22,CCOC(=O)CNC(=O)COc1ccc(CCl)cc1,88.5 to 90.5
23,CCOCc1nc2c(N)nc3ccccc3c2n1Cc1cc(-c2ccccc2)on1,221 to 223
24,Cc1[nH]c2cc(C(=O)c3ccccc3)ccc2c1C=O,192 to 196
